EP0063525A1, “Dibenzazepine tetracyclic derivatives, process for their preparation and pharmaceutical compositions containing them” (CENTRE NATIONAL DE LA RECHERCHE SCIENTIFIQUE (CNRS), priority 1981, dated 1982)
Like-named read-outs stand apart in the source and are kept apart here.

Legend:
[1] = acute toxicity in the mouse, intraperitoneal; assay type: in vivo, Souris; conditions: mouse, in vivo, ip, voie intrapéritonéale; for LD50 at 48 h: souris femelles, read-out: DL 50; for mortality at 48 h: read-out: Mortalité %
Source text: (§1) Les produits ont été administrés par voie intrapéritonéale à des souris femelles dont le poids variait de 18 à 30 g.
(§2) Les animaux injectés ont été maintenus dans une salle thermostatée, nourris et abreuvés à volonté.
(§3) La mortalité a été relevée à 1 heure, 4 heures, 24 heures et 48 heures.

souris femelles = experiment: acute toxicity in the mouse, intraperitoneal; assay type: in vivo; conditions: voie intrapéritonéale, dead mice of the group
Source text: as §1, §2, §3

SMILES | LD50 at 48 h [1] [mg/kg] | mortality at 48 h ([1]; 100 mg/kg) [%] | mortality at 48 h ([1]; 300 mg/kg) [%] | Mortalité en 1 heure (souris femelles; 100 mg/kg) | Mortalité en 48 h. (souris femelles; 100 mg/kg) | Mortalité en 1 heure (souris femelles; 300 mg/kg) | Mortalité en 48 h. (souris femelles; 300 mg/kg) | mortality at 48 h ([1]; 250 mg/kg) [%] | Mortalité en 1 heure (souris femelles; 250 mg/kg) | Mortalité en 48 h. (souris femelles; 250 mg/kg) | mortality at 48 h ([1]; 50 mg/kg) [%] | Mortalité en 1 heure (souris femelles; 50 mg/kg) | Mortalité en 48 h. (souris femelles; 50 mg/kg) | other results
CC(CN(C)C)CN1c2ccccc2C2ON=C(c3ccccc3)C2c2ccccc21 (centres unmarked) [compound 4, (méthyl-2 diméthylamino-3 propyl)-8 phényl-3 trihydro-3a, 8, 12b (dibenzo[b,f]-isoxazolo [4,5-d]) azépine] | 175 | 0 | 100 | 0 | 0 | 4 | 4 |  |  |  |  |  |  | 
OCCN1CCN(CCCN2c3ccccc3C3ON=C(c4ccccc4)C3c3ccccc32)CC1 (centres unmarked) [compound 5] | 125 |  |  |  |  |  |  | 100 | 5 | 5 |  |  |  | mortality at 48 h ([1]; 75 mg/kg): 20%; mortality at 48 h ([1]; 125 mg/kg): 40%; mortality at 48 h ([1]; 200 mg/kg): 100%; Mortalité en 1 heure (souris femelles; 75 mg/kg): 1; Mortalité en 48 h. (souris femelles; 75 mg/kg): 1; Mortalité en 1 heure (souris femelles; 125 mg/kg): 2; Mortalité en 48 h. (souris femelles; 125 mg/kg): 2; Mortalité en 1 heure (souris femelles; 200 mg/kg): 5; Mortalité en 48 h. (souris femelles; 200 mg/kg): 5
CN(C)CCCN1c2ccccc2C2C(c3ccccc3)=NN(c3ccccc3)C2c2ccccc21 (centres unmarked) [compound 8, (y-diméthylaminopropyl)-8 diphênyl-1,3 tétrahydro-1,3a,8, 12b(dibenzo [b,f]pyrazolo [3,4-d])azépine] | > 250 | 0 |  | 0 | 0 |  |  | 0 | 0 | 0 | 0 | 0 | 0 | mortality at 48 h ([1]; 5 mg/kg): 0%; mortality at 48 h ([1]; 150 mg/kg): 20%; Mortalité en 1 heure (souris femelles; 5 mg/kg): 0; Mortalité en 48 h. (souris femelles; 5 mg/kg): 0; Mortalité en 1 heure (souris femelles; 150 mg/kg): 1; Mortalité en 48 h. (souris femelles; 150 mg/kg): 1
CC(CN(C)C)CN1c2ccccc2-c2c(-c3ccccc3)nn(-c3ccccc3)c2-c2ccccc21 (centres unmarked) [compound 15, (méthyl-2 diméthylamino-3 propyl)-8 diphényl 1,3 dihydro-1,8(dibenzo [b,f]pyrazolo [3 ,4-d]) azépine] | 175 | 0 | 80 | 0 | 0 | 0 | 4 | 80 | 2 | 4 | 0 | 0 | 0 | 
c1ccc(-c2noc3c2-c2ccccc2Nc2ccccc2-3)cc1 [compound 16, phényl-3 (dibenzo [b,f]isoxazolo [4,5-d]) 8H azépine] | > 1000 | 0 |  | 0 | 0 |  |  | 20 | 0 | 1 | 0 | 0 | 0 | mortality at 48 h ([1]; 500 mg/kg): 0%; mortality at 48 h ([1]; 1000 mg/kg): 0%; Mortalité en 1 heure (souris femelles; 500 mg/kg): 0; Mortalité en 48 h. (souris femelles; 500 mg/kg): 0; Mortalité en 1 heure (souris femelles; 1000 mg/kg): 0; Mortalité en 48 heures (souris femelles; 1000 mg/kg): 0
